Key:
Microsomal stability = format: in vitro ADME, mouse
Experimental: HPLC-MS was done on a 3200 QTRAP (Applied Biosystems) equipped with a Shimadzu (Kyoto, Japan) UFLC System. Mouse serum and harmine were purchased from Sigma-Aldrich. Pooled CD1 mouse liver (female) microsomes were purchased from XenoTech, LCC (Lenexa, Kans.) with protein concentrations of 0.5 mg/ml. HCT116 cell lysates were prepared with PhosphoSafe lysis buffer (Novagen). Protein concentration was determined by using the BCA Assay. Analysis was carried out similarly as previously described [Liu, Y.; Salvador, L. A.; Byeon, S.; Ying, Y.; Kwan, J. C.; Law, B. K.; Hong, J.; Luesch. H. J. Pharmacol. Exp. Ther. 2010, 335, 351-361].
The stability of apratoxin A, S4 (BK), S7 (BL), S8 (BM) and S9 (BN) in the presence of mouse microsomes was determined by using an adaptation of a published procedure [Ackley, D. C.; Rockich, K. T.; Baker, T. R. Optimization in Drug Discovery: In Vitro Methods (Series: Methods in Pharmacology and Toxicology) (eds Yan Z, Caldwell J W) 2004, pp 151-162, Springer, New Jersey]. In brief, microsomes were added to prewarmed phosphate buffer (100 mM, pH 7.4) at 37° C. Apratoxin A, BK, BL, BM, or BN (3 μL) were added to the microsomal preparation followed by NADPH cofactor solution (1.3 mM NADP, 3.3 mM glucose 6-phosphate, 0.4 U/mL glucose-6-phosphate dehydrogenase, 3.3 mM MgCl2). The reaction was allowed to proceed for 3 min to 3 h (7 time points) at 37° C. (thermomixer, 1050 rpm). The reaction was quenched by addition of ethyl acetate and subsequently spiked with harmine. The zero time point was defined by denaturing the microsomes with ethyl acetate before the addition of apratoxins. Incubation of apratoxins with microsomes alone was also performed following the same procedure to determine NADPH-dependent metabolism. The final concentration of the incubation mixture contained 0.5 mg/ml protein concentration and 1 μM apratoxins.
(§1) Analysis of apratoxin A, S4 (BK), S7 (BL), S8 (BM) and S9 (BN) was done by using HPLC-MS [column, Onyx Monolithic C18 (3.0×100 mm), Phenomenex (Torrance, Calif.); solvent, water (solvent A) acetonitrile (solvent B); flow rate, 0.5 ml/min; detection by electrospray ionization-MS in positive ion mode (MRM scan)]. A stepwise gradient elution was used starting at 60% B and 40% A, then increasing to 80% B at 5 min and maintained at this condition for 5 min. Parameters were optimized before analysis by using direct syringe infusion. The retention times (tR, min; MRM ion pair) of the analytes and internal standard are as follows: harmine (2.2; 213.1→169.9), apratoxin A (4.7; 841.4→445.2), apratoxin S4 (BK) (4.1; 828.5→432.2), apratoxin S7 (BL) (4.05; 814.5→418.2), apratoxin S8 (BM) (5.2; 842.5→446.2), apratoxin S9 (BN) (4.9; 828.5→432.2). Compound-dependent parameters used were as follows: apratoxin A, declustering potential (DP) 51, entrance potential (EP) 12, collision energy (CE) 45, collision cell exit potential (CXP) 6, collision cell entrance potential (CEP) 32; and harmine, DP 56.0, EP 4.5, CE 44.0, CXP 5, CEP 16.0. Source gas parameters used were as follows: curtain gas, 15.0; collision gas low, ionspray voltage 5500; temperature, 600.0; ion source gas 150.0; ion source gas 2 60.0.
(§2) Calibration curves for apratoxin A, S4 (BK), S7 (BL), S8 (BM) and S9 (BN) in the presence of mouse serum, HCT116 cell lysates, and aqueous solutions were generated by least-square linear regression analysis of the analyte peak area and internal standard peak area ratio against the nominal concentration of the standard solutions. A linear regression analysis was performed, and the concentration of remaining apratoxins at each time point was determined through interpolation for plasma, cellular, and aqueous stability experiments. The amount of remaining apratoxins with microsome incubation was determined from the peak area ratio of apratoxins at tx (3 min to 3 h) and t0. All calculations were done by using Analyst 1.4.2 (Applied Biosystems) Quantitate Mode.

[1] = Cellular stability in HCT116 cell lysate; format: in vitro ADME, human; details: HCT116 protein lysate 0.7 mg/mL, up to 24 h, FIG. 2D
Experimental: Aliquots of HCT116 cell lysates were diluted with 25 mM Tris-HCl buffer, pH 8.0, to give a final reaction volume of 100 μL and protein concentration of 0.7 mg/mL. Cell lysate solutions were incubated with 10 μL of apratoxin A, BK, BL, BM, or BN (25 μg/mL) for 0.25 min to 24 h (nine time points). Remaining apratoxin A, BK, BL, BM, or BN were extracted from the reaction solution at the end of the incubation periods with ethyl acetate using the same procedure as described for the plasma stability assay.
as §1, §2

[2] = Plasma stability in mouse serum; format: in vitro ADME; details: up to 24 h, FIG. 2C
Experimental: In vitro plasma stability of apratoxin A, S4 (BK), S7 (BL), S8 (BM) and S9 (BN) was done by using a modification of a published method [Chen, X.; Gardner, E. R.; Figg, W. D. J. Chromatogr. B Analyt. Technol. Biomed. Life Sci. 2008, 86, 153-158]. Ten microliters of apratoxin A, BK, BL, BM, or BN (25 μg/mL) were added to 100 μL of mouse serum, and the solution was vortex-mixed for 15 s and incubated for 0.25 min to 24 h (11 time points). At the end of each incubation period, 400 μL of ethyl acetate was added to each tube, followed by 200 μL of harmine to quench the reaction and to extract the remaining apratoxin A or S4 (BK), S7 (BL), S8 (BM) and S9 (BN). Samples were further incubated in a thermomixer at 27° C. (750 rpm, 5 min) and later centrifuged for 5 min at 1643 g. The ethyl acetate layer was collected and evaporated to dryness under nitrogen. Samples were reconstituted in 50 μL of acetonitrile. A volume of 10 μL of the reconstituted solution was injected into the HPLC-MS system.
as §1, with “Compound-dependent parameters used were as follows: apratoxin A, declustering potential (DP) 51, entrance potential (EP) 12, collision energy (CE) 45, collision cell exit potential (CXP) 6, collision cell entrance potential (CEP) 32; and harmine, DP 56.0, EP 4.5, CE 44.0, CXP 5, CEP 16.0. Source gas parameters used were as follows: curtain gas, 15.0; collision gas low, ionspray voltage 5500; temperature, 600.0; ion source gas 150.0; ion source gas 2 60.0.” left out
as §2

SMILES | % remaining (Microsomal stability; microsomes + NADPH, 0 min) [%] | % remaining (Microsomal stability; microsomes + NADPH, 3 min) [%] | % remaining (Microsomal stability; microsomes + NADPH, 5 min) [%] | % remaining (Microsomal stability; microsomes + NADPH, 15 min) [%] | % remaining (Microsomal stability; microsomes + NADPH, 30 min) [%] | % remaining (Microsomal stability; microsomes + NADPH, 60 min) [%] | % remaining (Microsomal stability; microsomes + NADPH, 120 min) [%] | % remaining (Microsomal stability; microsomes only, 0 min) [%] | % remaining (Microsomal stability; microsomes only, 3 min) [%] | % remaining (Microsomal stability; microsomes only, 5 min) [%] | % remaining (Microsomal stability; microsomes only, 15 min) [%] | % remaining (Microsomal stability; microsomes only, 30 min) [%] | % remaining (Microsomal stability; microsomes only, 60 min) [%] | % remaining (Microsomal stability; microsomes only, 120 min) [%] | cellular stability [1] | plasma stability [2]
CC[C@H](C)[C@H]1C(=O)N2CCC[C@@H]2C(=O)O[C@H](C(C)(C)C)C[C@@H](C)C[C@H](O)CC2=N[C@@H](CCC(=O)N[C@@H](Cc3ccc(OC)cc3)C(=O)N(C)[C@@H](C)C(=O)N1C)CS2 [apratoxin S7 (BL), Apratoxin S7] | 100 | 54.95 ± 4.74 | 18.70 ± 1.41 | 52.40 ± 2.40 | 6.10 ± 1.96 | 5.41 ± 1.09 | 4.30 ± 0.82 | 100 | 66.60 ± 12.30 | 60.50 ± 2.26 | 76.55 ± 9.55 | 54.80 ± 1.56 | 54.50 ± 0.00 | 53.85 ± 9.40 | excellent | excellent
CC[C@H](C)[C@H]1C(=O)N2CCC[C@@H]2C(=O)O[C@H](C(C)(C)C)C[C@@H](C)C[C@H](O)C(C)(C)C2=N[C@@H](CCC(=O)N[C@@H](Cc3ccc(OC)cc3)C(=O)N(C)[C@@H](C)C(=O)N1C)CS2 [apratoxin S8 (BM), Apratoxin S8] | 100 | 37.20 ± 1.27 | 17.30 ± 2.55 | 8.28 ± 2.86 | 4.83 ± 1.05 | 3.55 ± 0.91 | 5.01 ± 0.23 | 100 | 74.10 ± 9.62 | 77.45 ± 3.18 | 63.45 ± 3.61 | 74.75 ± 8.70 | 81.25 ± 1.91 | 70.05 ± 0.78 | excellent | excellent
CC[C@H](C)[C@H]1C(=O)N2CCC[C@@H]2C(=O)O[C@H](C(C)(C)C)C[C@@H](C)C[C@H](O)[C@H](C)C2=N[C@H](CCC(=O)N[C@@H](Cc3ccc(OC)cc3)C(=O)N(C)[C@@H](C)C(=O)N1C)CS2 [apratoxin S9 (BN), Apratoxin S9] | 100 | 51.40 ± 8.06 | 17.80 ± 0.28 | 3.55 ± 0.25 | 3.73 ± 0.25 | 6.06 ± 2.40 | 5.63 ± 0.18 | 100 | 83.10 ± 0.42 | 71.40 ± 1.27 | 45.25 ± 5.30 | 56.05 ± 1.06 | 48.45 ± 0.92 | 56.25 ± 0.21 | excellent | excellent

Source: patent US11718645B2, “Macrocyclic therapeutic agents, methods of manufacture, and methods of treatment” (University of Florida Research Foundation, Incorporated, priority 2014, dated 2023)
